The text below walks through data of US20240390341A1, “METHODS FOR TREATING ADRENAL GLAND TUMORS” (Corcept Therapeutics Incorporated, priority 2023, published 2024).

Entries after “also recorded” stand apart in the source; their conditions may differ.

One assay concerns ACTH and cortisol levels. To be noted: Cushing's syndrome patients; cited from earlier work.
For another assay, the target named is glucocorticoid receptor (Homo sapiens, UniProt P04150). To be noted: HepG2 cells; cited from earlier work.
In assay [1] the test system is cortisol-secreting adrenal adenoma. The assay is described as follows: CT imaging of adrenal gland tumor size in GRADIENT study patients. In kind it is in vivo, human. An excerpt: (§1) The following protocol describes the GRADIENT clinical trial, an on-going, randomized, double-blind, placebo-controlled Phase 3 study which focuses on patients with hypercortisolism secondary to adrenal adenoma(s) or hyperplasia (ClinicalTrials.gov Identifier: NCT04308590). This study includes patients with cortisol-secreting adrenal adenomas or hyperplasia associated with DM/IGT (diabetes […] (DM) and/or impaired glucose tolerance (IGT)) and/or uncontrolled systolic hypertension. The study enrolled patients with hypercortisolism due to cortisol secreting adrenal adenomas or hyperplasia. These patients may or may not present the classic clinical manifestations of overt Cushing syndrome (i.e., facial appearance, buffalo hump, striae, etc.). Patients were identified as suffering from cortisol-secreting adrenal gland tumors based on abnormal dexamethasone suppression test (DST) and low ACTH. Patients could receive medications that were commonly used to treat diabetes, hypertension, or dyslipidemia if required. Following screening, those patients meeting study criteria were randomly assigned to receive doses of either placebo or relacorilant for 22 weeks of treatment. Patient follow-up was within 28 days of the last dose. Total patient participation in the study was up to 32 weeks. The GRADIENT study design is illustrated in FIG. 1. Patients discussed herein were participants in the GRADIENT study. […] The starting dose at Baseline was 100 mg relacorilant or matching placebo once daily for 2 weeks, after which the dose was increased to 200 mg. As tolerated, the dose was then increased by 100 mg to 300 mg once daily after 4 weeks, and, as tolerated, the dose was then increased to 400 mg once daily after another 4 weeks. If a dose was not tolerated, dose interruption, dose reduction, and dose re-escalation were allowed. Patients were maintained at a once-daily dose of 400 mg, or at their highest tolerated dose. Dose titrations after 18 weeks were not permitted. Patients who completed the study were permitted to continue relacorilant treatment in an extension study if they have at least 80% adherence with scheduled dosing (by capsule counts), and are expected to maintain clinical benefit from the study drug. Although not expected to regress, adrenal tumors progress very slowly, and rarely progress into overt Cushing syndrome ([…] et al. 2016 Eur J Endocrinol. 175 (2):G1-[…]. doi: 10.1530/EJE-16-0467). Patients receiving placebo continued to receive their previously prescribed medications; thus, although the placebo was not expected to provide additional benefit to those patients receiving placebo, neither was any detriment expected. Relacorilant was supplied as 100 mg capsules for oral dosing. […]

Assay [2] deals with plasma ACTH, cortisol levels. In words: Plasma ACTH, cortisol and DST in a GRADIENT study patient. The format is in vivo, human. The note with it: FIG. 2 patient.
Text: as §1, with “expected.” for “expected. Relacorilant was supplied as 100 mg capsules for oral dosing.”

The next assay concerns pituitary macroadenomas. To be noted: following administration of relacorilant; cited from earlier work.

Chain of glucocorticoid receptor (P04150 whole entry): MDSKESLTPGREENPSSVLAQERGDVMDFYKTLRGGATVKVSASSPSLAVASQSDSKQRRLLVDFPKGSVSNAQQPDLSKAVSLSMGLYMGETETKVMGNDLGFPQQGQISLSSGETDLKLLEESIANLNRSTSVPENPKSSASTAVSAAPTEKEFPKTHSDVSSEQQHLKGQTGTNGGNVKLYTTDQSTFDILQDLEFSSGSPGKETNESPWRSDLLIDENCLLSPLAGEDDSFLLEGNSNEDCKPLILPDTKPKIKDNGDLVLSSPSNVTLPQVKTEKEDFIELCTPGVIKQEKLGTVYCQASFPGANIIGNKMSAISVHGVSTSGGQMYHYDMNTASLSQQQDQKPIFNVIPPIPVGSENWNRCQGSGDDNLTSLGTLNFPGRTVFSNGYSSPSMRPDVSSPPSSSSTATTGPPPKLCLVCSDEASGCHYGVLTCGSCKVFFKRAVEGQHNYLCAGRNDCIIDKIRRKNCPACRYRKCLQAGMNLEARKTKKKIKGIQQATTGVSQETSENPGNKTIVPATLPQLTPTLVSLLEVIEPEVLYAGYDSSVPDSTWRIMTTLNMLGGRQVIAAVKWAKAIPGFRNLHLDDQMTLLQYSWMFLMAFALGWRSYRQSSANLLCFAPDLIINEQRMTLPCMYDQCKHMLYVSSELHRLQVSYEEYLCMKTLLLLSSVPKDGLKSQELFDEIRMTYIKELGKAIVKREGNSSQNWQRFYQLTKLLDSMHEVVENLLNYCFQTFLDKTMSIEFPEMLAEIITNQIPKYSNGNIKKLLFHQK

On to `CC#C[C@]1(O)CC[C@H]2[C@@H]3CCC4=CC(=O)CCC4=C3[C@@H](c3ccc(N(C)C)cc3)C[C@@]21C` [mifepristone], for which, in the assay with ACTH and cortisol levels, the “ACTH levels (in words)” value is on record as “increased” and the “cortisol levels (in words)” value is on record as “increased”. Moreover, the “activity of tyrosine aminotransferase (TAT) (in words)” value at glucocorticoid receptor is given as “decreases”.
For `Cn1cc(S(=O)(=O)N2CCC3=Cc4c(cnn4-c4ccc(F)cc4)C[C@]3(C(=O)c3cc(C(F)(F)F)ccn3)C2)cn1` [relacorilant, (R)-(1-(4-fluorophenyl)-6-((1-methyl-1H-pyrazol-4-yl)sulfonyl)-4,4a,5,6,7,8-hexahydro-1H-pyrazolo[3,4-g]isoquinolin-4a-yl)(4-(trifluoromethyl)pyridine-2-yl)methanone], in assay [1] (FIG. 2 patient, benign cortisol-secreting adenoma, daily relacorilant 100 up to 400 mg/day for almost two years, initial size 4.2 cm), the “size of adrenal adenoma (CT)” value was 3.1 cm. In addition, the “degenerative changes inside the adenoma (CT)” value in assay [1] (FIG. 2 patient, after almost two years of daily relacorilant, not present in initial scan) was “exhibits areas of degeneration; also recorded: developed fat droplets”. In assay [1] (FIG. 3 patient, at least 3 months daily relacorilant 100 up to 400 mg/day, 34.09 mm / 34.08 mm before treatment), the “maximum tumor dimension (CT measurement line)” value came to 30.99 mm. The “change in adrenal gland tumor size following treatment (in words)” value in assay [1] (individual patients, daily relacorilant up to 400 mg/day) is given as “reduced; also recorded: decreased”. Besides, in assay [2] (after relacorilant treatment), the “cortisol levels (in words)” value is reported as “decreased” and the “dexamethasone suppression test (DST) (in words)” value is “normalized”. In addition, the “ACTH levels (in words)” value in assay [2] (at 6 months of relacorilant administration) is “normalized”. Also, in assay [2] (since 6 months of relacorilant, undetectable before treatment), the “plasma ACTH level” value was 15 to 18 pg/mL. Moreover, the “pituitary macroadenoma size (in words)” value in the assay on pituitary macroadenomas was “shrink”.
